Values joined by “and” are separate entries in the source; they are usually repeats but may differ in a detail not shown here. Equal entries are not always repeated.
Assays:
hNQO1 [1] = target: T1, hNQO1 (Homo sapiens, UniProt P15559); experiment: Activity of 4-MU and Lactone with hNQO1; type: biochemical; details: 0.1 mM, NADH 0.5 mM, hNQO1, phosphate buffer pH 7, 37° C. (FIG. 6)
Description: This experiment was performed to ensure the products of activation were not further metabolised by hNQO1. HPLC was carried out on samples containing 4-MU and Lactone (0.1 mM), NADH (0.5 mM) and hNQO1 (0.2 μg) in phosphate buffer (10 mM, pH 7) using a 1-99% acetonitrile gradient and a 2 μl injection volume. Temperature was maintained at 37° C.

hNQO1 [2] = target: T1, hNQO1; experiment: Evaluation of MTL8-252 activity with human NQO1 (HPLC/UPLC, UV and fluorescence detection); type: biochemical
Description: Initial HPLC was carried out on samples containing MTL8-252 (0.1 mM), NADH (0.5 mM) and 0.5 μg/ml hNQO1 in phosphate buffer (10 mM, pH 7) using a 1-99% acetonitrile gradient and a 1 μl injection volume. Temperature was maintained at 37° C.
Reduction of the parent compound was rapid as most of it had disappeared by the second injection. […] The rate of reduction in MTL8-252 concentration was calculated at 5.9 μM/min and when the concentration of the enzyme was halved the rate reduced to 1.5 μM/min
By altering the settings of the FL Plus detector (Low PMT voltage, λex 410 nm, λem 550 nm) and calibrating for 4-MU measurements by establishing a calibration graph it can be seen that there was a linear response to 4-MU up to at least 200 μM. The maximum concentration used in incubation experiments is 100 μM, final.
Following calibration of the instrument, a repeat experiment of the activation of MTL8-252 by hNQO1 was carried out resulting in calculated rates of loss of MTL8-252 and formation of 4-MU (see FIG. 4). Rate loss of MTL8-252 was 8.41 uM/min and that corresponding to 4-MU formation determined by fluorescence was 13.51 uM/min.

[3] = Stability of MTL8-252 in NMP and sodium phosphate buffer; type: physicochemical
Description: Stability of 0.1M MTL8-252 in NMP was assessed over a 2-hour period at 37° C. The compound appeared stable as evidenced by the fact that the uv absorbance peak area remained substantially unchanged. […] A similar experiment was carried out with DMSO stock diluted in 10 mM sodium phosphate buffer.

[4] = Solubility of MTL8-252 in NMP and DMSO; type: physicochemical
Description: NMP Solubility: A solution of the product of Example 3D (MTL8-252) was prepared in NMP and further diluted to 0.1M in NMP. The purity of the compound was assessed via uplc using a 1-99% Acetonitrile gradient. Injection volumes of 0.5 μl, 1 μl, 2 μl, 3 μl and 5 μl were used. Purity was determined to be almost 100% based on uv data at 265 nm. The FL Plus settings were (high PMT voltage, λex 410 nm and λem 550 nm, off peak). Only a single peak with retention time of approx 4.3 min was detected. MTL8-252 was equally very soluble in DMSO.
A similar result was obtained for the diluted DMSO stock. Subsequent experiments utilised 0.1M diluted stock in 10 mM phosphate buffer, pH 7.0 and injected directly onto the uplc column

[5] = target: T2, Human NQO1 expressing cells (HDT7) (Homo sapiens, UniProt P15559); experiment: MTL8-252 incubation with cultured cells, luminescence spectrophotometric determination of 4-MU; type: cell-based
T2 construct: expressed in transfected cells; host or cells: HDT7 (engineered NQO1-producing cell line; F179 is the null control)
T2 sequence (P15559 whole entry): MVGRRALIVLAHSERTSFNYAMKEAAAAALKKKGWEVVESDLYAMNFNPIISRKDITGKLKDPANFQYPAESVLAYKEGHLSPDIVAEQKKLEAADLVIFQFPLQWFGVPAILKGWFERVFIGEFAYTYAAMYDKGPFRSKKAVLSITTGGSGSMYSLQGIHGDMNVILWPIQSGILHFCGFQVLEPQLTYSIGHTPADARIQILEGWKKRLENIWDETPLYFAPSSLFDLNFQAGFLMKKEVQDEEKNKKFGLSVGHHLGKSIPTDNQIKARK
Description: (§1) Human NQO1 expressing cells (HDT7) and null expressing cells (F179) were cultured in Eagle's MEM medium enriched with non-essential amino acids and 10% FBS. Cells were harvested in exponential growing phase and suspended in cold PBS @ 5×10^6 cells/ml. 100 ul of cell suspension (5×10^5 cells) were added to 3 ml PBS containing 10 uM MTL8-252 at 37° C. in a fluorimeter cuvette and the rate of increase in fluorescence intensity (attributed to 4-MU release), measured over 3 minutes. Control experiment contained substrate alone in PBS.
(§2) The Luminescence Spectrophotometer settings were as follows: λex=360 nm; λem=452 @ 37° C.

[6] = test system: null expressing cells (F179); experiment: as above; type: cell-based; details: F179 2.5×10^5 cells/mL, luminescence spectrophotometer
Description: as §1, §2

[7] = target: T3, hDT7 NQO1-expressing cell line (Homo sapiens, UniProt P15559); experiment: MTL8-252 incubation with cultured cells, uplc separation followed by FL-Plus detection; type: cell-based
T3 construct: expressed in transfected cells; host or cells: HDT7 (engineered NQO1-producing cell line; F179 is the null control)
T3 sequence (P15559 whole entry): as above
Description: (§3) Cells in exponential growth phase were harvested and resuspended in cold PBS at 5×10^6 cells/ml. 100 ul of cell suspension (5×10^5 cells) were added to 1 ml PBS containing 10 uM MTL8-252 at 37° C. and incubated for the following time periods: 0, 5, 30 and 60 min. The reaction was stopped by spinning down cells at 13,000 rpm for 30 seconds and the cell free extract injected (2 ul) directly unto the uplc.

[8] = test system: null expressing cell line F179; experiment: as above; type: cell-based; details: MTL8-252 10 μM in PBS, 5×10^5 cells/mL
Description: as §3

[9] = Control experiment: substrate alone without cells, 4-MU release; type: physicochemical
[10] = Stability of MTL8-252 in PBS and cell culture media with or without FBS; type: physicochemical
Text: Possible source is from FBS added in media.

hNQO2 in PC3 cells = target: T4, hNQO2 in PC3 cells (Homo sapiens, UniProt P16083); experiment: Discrimination between NQO1 and NQO2 activity in PC3 cells with co-substrate EP-0152R; type: cell-based; details: 5×10^5 PC-3 cells, 10 uM MTL8-252, 100 uM EP-0152R, 37° C., 5 min (FIG. 14)
T4 construct: Prostate carcinoma cells (as exemplified by PC3 cells) express both NQO1 and NQO2 activity; endogenous in cells; host or cells: PC3 (PC-3) human prostate cancer cell line
T4 sequence (P16083 1-231): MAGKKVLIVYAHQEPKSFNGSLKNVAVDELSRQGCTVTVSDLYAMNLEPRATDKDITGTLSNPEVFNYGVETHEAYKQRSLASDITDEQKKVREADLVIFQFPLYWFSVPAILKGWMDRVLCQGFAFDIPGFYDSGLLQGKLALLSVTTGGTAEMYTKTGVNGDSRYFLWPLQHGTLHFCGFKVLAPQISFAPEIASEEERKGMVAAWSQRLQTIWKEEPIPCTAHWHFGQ
Description: Prostate carcinoma cells (as exemplified by PC3 cells) express both NQO1 and NQO2 activity. However, the latter is only activated by the presence of a co-substrate not naturally present in the cells (EP-0152R, 1-carbamoylmethyl-3-carbamoyl-1,4-dihydronicotinamide).
To 440 ul of PBS containing 5×10^5 PC-3 cells pre-incubated at 37° C. for 5 min was added 10 uM MTL8-252 fluorogenic substrate in DMSO (final, 10 ul) and volume adjusted to 500 ul with PBS. After incubating for a further 5 min the mixture was syringe filtered as above and 2 ul of supernatant analysed by uplc as described earlier. The reaction on the same number of cells was repeated with the inclusion of 100 uM EP-0152R (50 ul) as co-substrate during incubation. The reaction mixture was filtered and analysed as above. […] In the former instance, where NQO1 and NQO2 are expressed, the supplemented assay can be used to provide a stronger assay signal and in the latter instance, where only NQO2 is expressed, the supplemented assay can be used to detect hNQO2 expressing cancers only.

hNQO1 [11] = target: T1, hNQO1; experiment: Evaluation of MTL8-252 activity with human NQO1 (HPLC/UPLC, UV and fluorescence detection); type: biochemical; remark: listed apart in the source
[12] = repeat experiment after calibration (FIG. 4)
[13] = replots of UV data at 210 nm (FIG. 5)

T1 sequence (P15559 whole entry): as the sequence (P15559 whole entry) above

Compound: Cc1c(C)c2c(c(C)c1O)C(C)(C)CC(=O)O2 [Lactone, 6-Hydroxy-4,4,5,7,8-pentamethyl-1-benzopyran-2-one]
- substrate of / stability in the presence of hNQO1 (hNQO1 [1]): not substrates of hNQO1
- substrate of / stability in the presence of hNQO1 (hNQO1 [1]; listed as lactone): stable in the presence of hNQO1

Compound: CC1=C(C)C(=O)C(C(C)(C)CC(=O)Oc2ccc3c(C)cc(=O)oc3c2)=C(C)C1=O [MTL8-252, 4-Methyl-2-oxo-2H-chromen-7-yl-3-methyl-3-(2,4,5-trimethyl-3,6-dioxocyclohexa-1,4-dienyl)butanoate]
- rate of disappearance of Compound (FIG. 4) (hNQO1 [2]; MTL8-252 100 μM, hNQO1 0.2 μg/mL, NADH 500 μM, UPLC): 13.51 µM/min
- reduction in the area of the peak without enzyme (hNQO1 [2]; MTL8-252 alone or with NADH alone (FIG. 3)): No significant reduction
- rate of appearance of 4 MU (FIG. 5) (hNQO1 [2]; UV at 210 nm, hNQO1 and NADH): 11.5 µM/min
- rate of appearance of the lactone (FIG. 5) (hNQO1 [2]; UV at 210 nm, hNQO1 and NADH): 9.84 µM/min
- rate of disappearance of MTL8-252 (FIG. 5) (hNQO1 [2]; UV at 210 nm, hNQO1 and NADH): 8.41 µM/min
- rate of appearance of 4 MU (FIG. 4) (hNQO1 [2]; detected by fluorescence, MTL8-252 100 μM, hNQO1 0.2 μg/mL, NADH 500 μM): 8.41 µM/min
- Rate of formation of Lactone (n = 2) (hNQO1 [2]; initial rates, MTL8-252 0.1 mM, NADH 0.5 mM, hNQO1, pH 7, 37° C.): 9.84 µM/min and 7.61 µM/min
- Rate of decrease in MTL8-252 concentration (n = 4) (hNQO1 [2]; initial rates, MTL8-252 0.1 mM, NADH 0.5 mM, hNQO1, phosphate buffer 10 mM pH 7, 37° C.): 5.9 µM/min and 6.21 µM/min and 8.41 µM/min and 9.05 µM/min
- Rate of formation of 4-MU @ 210 nm (n = 2) (hNQO1 [2]; initial rates, UV 210 nm, MTL8-252 0.1 mM, NADH 0.5 mM, hNQO1, pH 7, 37° C.): 11.48 µM/min and 6.0 µM/min
- Rate of formation of 4-MU by FL (n = 2) (hNQO1 [2]; initial rates, fluorescence detection, MTL8-252 0.1 mM, NADH 0.5 mM, hNQO1, pH 7, 37° C.): 13.51 µM/min and 6.90 µM/min
- 4-MU formation determined by fluorescence (hNQO1 [2]; [12]): 13.51 µM/min
- Rate loss of MTL8-252 (hNQO1 [2]; [12]): 8.41 µM/min
- initial rate of formation of 4-MU (hNQO1 [2]; [13]): 11.48 µM/min
- initial rate of formation of lactone (hNQO1 [2]; [13]): 9.84 µM/min
- substrate for hNQO1 (hNQO1 [2]; with NADH, pH 7, 37° C.): excellent substrate for hNQO1
- release of 4-methylumbelliferone (4-MU) in NMP ([3]; 0.1M in NMP, 2-hour period at 37° C.): No detectable release
- Stability in NMP ([3]; 0.1M in NMP, 2-hour period at 37° C., uv absorbance peak area): stable
- stability in 10 mM sodium phosphate buffer, time stable ([3]; DMSO stock diluted in 10 mM sodium phosphate buffer (FIG. 2)): at least 1 hr
- stability in phosphate buffer, time stable ([3]; phosphate buffer (10 mM), 37° C., monitored 75 mins (FIG. 2)): at least 1 hour
- solubility in DMSO [4]: very soluble
- increase in 4-MU formation rate, HDT7 compared with null expressing cells (F179) ([5]; FIG. 7, luminescence spectrophotometer): at least 5 fold
- rate of formation of 4 MU in the hDT7 cells (FIG. 7) ([5]; hDT7 2.5×10^5 cells/mL, luminescence spectrophotometer): 0.83 nmol/min
- rate of formation of 4 MU in the F179 cells (FIG. 7) [6]: 0.18 nmol/min
- increase in activity of hNQO1 expressing cells over null expressing cells (initial rate) ([7]; FIG. 8, uplc FL-Plus): about 100 fold
- initial rate of release of 4 MU in hDT7 cells (FIG. 8) ([7]; MTL8-252 10 μM in PBS, 5×10^5 cells/mL, FL-Plus λex=360 nm λem=450 nm): 6.1 µM/min
- initial rate of release of 4 MU in F179 cells (FIG. 8) [8]: 0.068 µM/min
- rate of release of 4 MU from the control experiment (FIG. 8) ([9]; MTL8-252 10 μM in PBS alone): 0.002 µM/min
- rate of formation of 4 MU in the urine alone (FIG. 7) ([9]; compound in urine alone, no cells): 0.32 nmol/min
- stability in PBS (FIG. 9) ([10]; PBS): very stable
- stability in cell culture medium (FIG. 9) ([10]; PBS replaced with cell culture medium, possible source FBS): other components in the media can reduce MTL8-252
- stability in media without FBS (FIG. 9) ([10]; media without FBS): very stable
- increase in the formation of 4-MU by addition of hNQO2 selective co-substrate (hNQO2 in PC3 cells): 1.2 fold
- rate of reduction in MTL8-252 concentration (hNQO1 [11]; 0.2 μg/ml hNQO1, NADH): 5.9 µM/min
- rate of reduction in MTL8-252 concentration (hNQO1 [11]; concentration of the enzyme halved (0.10 μg/mL hNQO1)): 1.5 µM/min

Compound: Cc1cc(=O)oc2cc(O)ccc12 [Compound 4-MU, 4-methylumbelliferone, reference compound]
- substrate of / stability in the presence of hNQO1 (hNQO1 [1]): not substrates of hNQO1
- substrate of / stability in the presence of hNQO1 (hNQO1 [1]; listed as 4 MU): stable in the presence of hNQO1

Reference: patent US20140370520A1, “METHODS AND COMPOUNDS FOR DETECTING CANCER” (University College Cardiff Constultants Limited, priority 2010, published 2014)
